Assays:
[1] = system: A549 human lung adeno-carcinoma cells; assay: MTT cyto-toxicity test, A549 cells; type: cell-based; details: 24 hours incubation, read-out: IC50 concentration in A549 lung cancer cells
Description: A549 human lung adeno-carcinoma cells have been implanted to the cell culture plates with 96 wells such that there are 2×10^3 cells per well. The cells implanted to the plate have been incubated at 37° C. and in a medium of 5% carbon dioxide. A549 cells have been incubated for 24 hours in the concentration range of 5-65 μM with synthesized ceranib-2. At the end of the duration, 20 μL MTT dye (5 mg/mL) has been added to each well and it has been incubated for 2 hours more at 37° C. After the incubation, the liquid part in each well on the plate is discharged and 200 μL DMSO has been added for dissolving the formazan salts formed by viable cells and it has been waited for 10 minutes at room temperature. The color change occurring has been read at wavelength of 570 nm on the ELx808-IU (Bio-Tek, USA) plate reader. The experiment has been repeated 3 times. Separate viability values have been calculated according to the control group for each dose.

[2] = system: MCF-7 human breast cancer cells; assay: IC50 in MCF-7 cells (cytotoxicity); type: cell-based; details: read-out: IC50 concentration in MCF-7 human breast cancer cells
MCF-7 cells = assay: Electron micrographs of MCF-7 cells; type: cell-based, human; details: MCF-7 cells treated for 24 hours
Excerpt: In FIG. 2, electron micrographs of the MCF-7 cells are seen.
FIG. 2: Electron transmission micrographs of MCF-7 cells.

5RP7 cells = assay: IC50 in 5RP7 cells (cytotoxicity); type: cell-based; details: read-out: IC50 concentration in 5RP7 cells
NIH/3T3 cells = assay: IC50 in NIH/3T3 cells (cytotoxicity); type: cell-based; details: read-out: IC50 concentration in NIH/3T3 cells
[3] = system: A549 lung cancer cell line; assay: Microscopy of structural changes in A549 cells; type: cell-based, human; details: A549 cells treated for 24 hours
Excerpt: In FIG. 3, the confocal microscope images of the study made on A549 type cells which is a lung cancer cell line are given.
FIG. 3: Electron transmission microscope images showing the structural changes in A549 cells.

[4] = value mentioned in the sources; read-out: IC50 concentration in cell-based experiments (in the sources); cited from earlier work
synergistic tumor model = details: 20-50 mg/kg; cited from earlier work
MCF-7 cell line = assay: Confocal microscopy of MCF-7 cells; type: cell-based, human; details: MCF-7 cells treated for 24 hours, acridine orange and phalloidine
Excerpt: In FIG. 1, the confocal microscopy images are provided belonging to the study made on the MCF-7 cell line. In the control cells, a tight and normal cell and cell nucleus structure are seen (FIG. 1A).
FIG. 1: Confocal electron transmission microscope image of MCF-7 cells painted with acridine orange and phalloidine.

In the case of `COc1ccc(C=CC(=O)c2c(-c3ccccc3)c3ccccc3[nH]c2=O)cc1` [ceranib-2, 3-[3-(4-methoxyphenyl)-1-oxo-2-prpen-1-yl]-4-phenyl-2(1H)-quinolinone], the IC50 [1] is reported as 14 µM, the IC50 [2] is reported as 13 µM and the “Cell ultrastructure, electron micrographs (FIG. 2)” value (MCF-7 cells) is reported as “the nucleus membrane is lost and the mitochondria is deformed”. For the same compound, the IC50 (5RP7 cells) was 3 µM, the IC50 (NIH/3T3 cells) was 5 µM and the “Structural changes in cells, microscopy (FIG. 3)” value [3] was “the cell nucleus is fragmentized, the cell shape is transformed from oval to round and deformations begin in the cell membrane, lipid drops are formed inside the cell, DNA fragmentizing occurs and holes occur inside the cell”. For the same compound, the IC50 [4] was about 28 µM, the Toxicity in vivo (synergistic tumor model) was “without leading to toxicity” and the Tumor growth (synergistic tumor model) was “inhibits tumor growth”. The “Cell morphology, confocal microscopy (FIG. 1)” value (MCF-7 cell line) was “condensation is observed in the chromatin, holes are observed in the cell structure, shrunken cell nucleus is observed and fragmentizing cells are observed”.

From patent US10342790B2, “Use of ceranib-2 in the treatment of lung cancer” (ANADOLU UNIVERSITESI REKTORLUGU, priority 2017, dated 2019)
